Reference: patent EP3130339A1, “A COMPOUND FOR USE IN THE TREATMENT OF COMORBID ANXIETY DISORDER AND DEPRESSION DISORDER” (Aché Laboratórios Farmacêuticos S.A., priority 2015, dated 2017)

Columns and labels:
Type in all cases: in vivo
[1] = tested on: Mice; assay: Sphere hiding test; details: for Number of Hidden Spheres (mean ± mean standard error): 25 glass spheres, counted at the end of 30 minutes; for number of hidden spheres (result in words): summary of Table 4 over the doses tested
Description: This test is based on the natural aversive behavior to glass and marble of rodents, where the presence of these objects triggers the action of burying (hiding). In this test, there are potential behavioral changes of medicines that may promote an ansiogenic or anxiolytic profile. This is determined by the increase or decrease of the behavior of hiding glass spheres ("marbles") that are randomly distributed on the surface of a box lined with sawdust. The increase of the number of covered balls is an indicative of anxiety, since it is supposed to represent a foreign agent to the animal, whose presence may pose threat. The administration of anxiolytics medicines decreases the number of spheres buried in non-sedative doses.
The method employed followed the procedure described by Broekkamp et al. (Eur. J. Pharmacol., 1986, 126, 223-229).
Mice were individually placed in transparent plastic cages (33 x 21 x 18 cm), with the floor covered by a 5 cm layer of sawdust and 25 glass spheres grouped in the center of the cage. The cage was covered with a perforated plastic cover. Each test cage, along with the glass spheres, were previously impregnated with "mouse odor", and a group of 10 mice was left inside for 15 minutes.
The number of glass spheres covered with sawdust (2/3 or more of the surface) was counted at the end of the 30 minutes of the test.
Each study group consisted of 12 mice. The test was partially blind (substances tested versus vehicle of the tested substances).
This test aimed at obtaining a comparison profile of response of Compound (A) (3-(2-(-4-(2-methoxyphenyl)piperazin-1-yl) ethyl) quinazolin-4 (3H) -one and Compound (B) (3-(2-(4-(2-cyanophenyl)piperazin-1-yl)ethyl)quinazolin-4(3H)-one) with known compounds that act by different mechanisms. The comparative compounds used were alprazolam (benzodiazepine) and paroxetine (ISRS-type antidepressant). These compounds were tested in the following doses: Table 3: Compounds tested, concentrations employed and route of administration.
Fluoxetine (ISRI antidepressant) was used as the positive control substance in the test, and was administered at 32 mg/kg (i.p.).
Quantitative data for the tested substances (number of glass spheres coated with sawdust) were evaluated by comparison with the treated groups using one-way ANOVA followed by planned comparisons against the appropriate vehicles. Data with fluoxetine were compared to the vehicle control using unpaired Student's t test.

[2] = tested on: mice (RJ:NMRI, males); assay: Bright/dark box test (clear/dark transition test); details: for Time spent in the clear compartment compared to vehicle % / Time spent in the clear compartment (seconds) (mean ± mean standard error): 30 minutes before the test; for Time spent in the clear compartment (seconds) (mean ± mean standard error): three-minute test; for permanence time in the clear compartment (result in words): summary of Table 2 over the doses tested, i.p.
Description: This model, also known as clear/dark transition test, is characterized as a model of conflict, based on the natural tendency to explore new environments versus avoidance of doing so, due to the potential possibility of the presence of aversive stimuli. It is an animal model based on independent behavior of conditioning, therefore, there is no need of learning. In rodents, this model is grounded in their natural aversion to excessively clear environments. This aversion is measured from the ansiogenic component expressed by lower exposure of the animal to the clear compartment.
The method employed followed the procedure described by Crawley and Goodwin (Pharmacol. Biochem. Behav. 1981, 15, 695-699).
The animals were placed on the clear field of a box comprising two compartments, one being illuminate and open (25 x 27 x 27 cm) and the other being dark and close (20 x 27 x 27 cm). Data on the length of stay in each compartment were collected over the three-minute test.
This test aimed at obtaining a comparison profile of response of Compound (A) (3-(2-(-4-(2-methoxyphenyl)piperazin-1-yl)ethyl)quinazolin-4(3H)-one and Compound (B) 3-(2-(4-(2-cyanophenyl)piperazin-1-yl)ethyl)quinazolin-4(3H)-one with known compounds that act by different mechanisms. The comparative compounds were alprazolam (benzodiazepine), paroxetine (ISRS-type antidepressant), venlafaxine (IRSN-type antidepressant) and agomelatine (antidepressant that acts on melatonin and serotonin 5-HT2C receptor). The following doses were employed in this study: Table 1: Tested compounds, concentrations and route of administration.
In this blind study, ten mice (RJ:NMRI, males) were employed per group. Clobazam (12 mg/Kg, i.p. route) was administered under the same study conditions as the reference compound. All compounds were administered 30 minutes before the test.
The test data of the response of substances were analyzed comparing the groups treated with the control vehicle using one-way ANOVA followed by post-hoc analysis of Dunnett's test. The data of the reference substance obtained were analyzed using unpaired Student's t test.

[3] = tested on: Mice; assay: Non-precipitated withdrawal test
Description: This test aims at assessing how the sudden cessation of the administration of a medicine can be associated with the occurrence of withdrawal identifiable symptoms. The types of symptoms examined are feed changes, weight gain, body temperature and the occurrence of one or behavioral symptoms and others, such as tremor, teeth chattering, wet dog body-shaking, diarrhea or piloerection. The triggering of these signs is a first sign that the substance induces dependence after repeated administration.
The method employed followed the procedure described by Goudie and Leathley (Psychopharmacology 1991, 103: 529-537).
Two mice per cage received two administrations per day (approximately 10:00 hours and 16:00 hours) of the test substance continuously during 19 days (day 1 to day 19), with the last administration occurring next to 10:00 hours of the 20th day. Control animals received the same number of administrations of vehicle. […] During the discontinuation phase, all animals received administration of vehicle once a day.
Additionally to the observations made after discontinuing the medicines, the same measures were taken at day 1 and day 10 of treatment, in addition to the 3 last days (days 18 to 20) immediately prior to administration of the dose in the morning to assess the effects of medicines before discontinuation. After discontinuation, the first observation was performed 24 hours after the last administration and, from then on, every 24 hours (days 21 to 28).
For daily measurements, the animals were evaluated with respect to behavioral changes during 5 minutes (two animals simultaneously observed). Then, their body weights and rectal temperatures were measured. Then, they received the proper treatment and were returned to their cages.
The leftover food in their supporters was weighed immediately after all animals return to their cages (only in the mornings), and food consumption in the previous 24 hours was determined.
The body weights, feed consumption and rectal temperatures were also measured 24 hours before the first administration, as reference values. The treated groups were homogenized with regard to body weights on the day preceding the first administration of the tested substances.
Compound (A) (3-(2-(-4-(2-methoxyphenyl)piperazin-1-yl)ethyl)quinazolin-4 (3H)-one) was evaluated in 3 doses (3, 10 and 30 mg/kg) administered orally (p.o.) and compared to the vehicle (control group).
Chlordiazepoxide (64 mg/kg, p.o.) was administered under the same experimental conditions, and was employed as reference substance in the test.
Paroxetine (15 and 30 mg/kg p.o.) was administered under the same experimental conditions and was used as comparative substance.
The test was blinded. Data were analyzed by comparing substances with their control vehicles employing one-way ANOVA with the group as a factor followed by post-hoc Dunnett tests. Data with the reference substance were analyzed using unpaired Student's t test.

[4] = dose given in Table 4 as (4), i.p.
[5] = dose given in Table 4 as (8), i.p.
[6] = 32 mg/kg i.p., positive control
[7] = 12 mg/Kg i.p., reference compound
[8] = withdrawal phase, 64 mg/kg p.o.

For COc1ccccc1N1CCN(CCn2cnc3ccccc3c2=O)CC1 [Compound (A), 3-(2-(-4-(2-methoxyphenyl)piperazin-1-yl)ethyl)quinazolin-4(3H)-one], the “Number of Hidden Spheres Compared to vehicle control %” value (“Number … to vehicle control %” below) [1, 4] was -82%, the “Number of Hidden Spheres (mean ± mean standard error)” value (shortened to “Number … (mean ± mean standard error)”) [1, 4] was 3.5 ± 2.4 and the “Number … to vehicle control %” value [1, 5] was -98%. The “Number … (mean ± mean standard error)” value [1, 5] was 0.3 ± 0.3, the “number of hidden spheres (result in words)” value ([1]; i.p.) was “significantly reduced the number of hidden spheres” and the “Time spent in the clear compartment compared to vehicle %” value (“Time spent … to vehicle %” for short) ([2]; 4 mg/Kg i.p.) was “+8%”. The “Time spent in the clear compartment (seconds) (mean ± mean standard error)” value (“Time spent … (mean ± mean standard error)” below) ([2]; 4 mg/Kg i.p.) was 79.6 ± 15.4 s, the “Time spent … to vehicle %” value ([2]; 8 mg/Kg i.p.) was “+111%” and the “Time spent … (mean ± mean standard error)” value ([2]; 8 mg/Kg i.p.) was 155.1 ± 14.4 s. The “Time spent … to vehicle %” value ([2]; 16 mg/Kg i.p.) was “+93%”, the “Time spent … (mean ± mean standard error)” value ([2]; 16 mg/Kg i.p.) was 141.7 ± 13.4 s and the “permanence time in the clear compartment (result in words)” value [2] was “efficient in extending the permanence time in the clear compartment”. For the same compound, the “withdrawal syndrome after an extended administration regimen” value ([3]; mouse, in vivo, po) was “does not induce withdrawal syndrome”.

With CNCCC(Oc1ccc(C(F)(F)F)cc1)c1ccccc1 (centres unmarked) [Fluoxetine] the “Number … to vehicle control %” value [1, 6] was -74% and the “Number … (mean ± mean standard error)” value [1, 6] was 4.9 ± 2.0.

With CN1C(=O)CC(=O)N(c2ccccc2)c2cc(Cl)ccc21 [Clobazam] the “Time spent … to vehicle %” value [2, 7] was “+41%” and the “Time spent … (mean ± mean standard error)” value [2, 7] was 104.0 ± 5.2 s.

For CNC1=Nc2ccc(Cl)cc2C(c2ccccc2)=[N+]([O-])C1 [Chlordiazepoxide], the “withdrawal syndrome after an extended administration regimen” value ([3]; overall conclusion of the test, p.o., two administrations per day, day 1 to 20) was “induces a clear withdrawal syndrome”, the “behavioral and psychological effects” value ([3]; treatment phase, 64 mg/kg p.o.) was “ptosis, hyperactivity, jumps and dyspnoea” and the “body weight and amount of food consumed” value ([3]; treatment phase, 64 mg/kg p.o.) was “did not induce significant changes”. The rectal temperature ([3]; treatment phase, 64 mg/kg p.o.) was “slight increase of rectal temperature”, the “behavioral and psychological effects” value [3, 8] was “intensified the psychological behaviors and symptoms, mainly dyspnoea and hyperactivity, inducing occasional straub tail and teeth chattering” and the “body weight, amount of food consumed and rectal temperature” value [3, 8] was “clear reduction in body weight and the amount of food consumed, and a significant increase of rectal temperature”.

In the case of COc1ccc(C(CN(C)C)C2(O)CCCCC2)cc1 (centres unmarked) [Venlafaxine, venlafaxine], the “Time spent … to vehicle %” value ([2]; 8 mg/Kg i.p.) was -2%, the “Time spent … (mean ± mean standard error)” value ([2]; 8 mg/Kg i.p.) was 72.3 ± 7.3 s and the “Time spent … to vehicle %” value ([2]; 16 mg/Kg i.p.) was -12%. For the same compound, the “Time spent … (mean ± mean standard error)” value ([2]; 16 mg/Kg i.p.) was 65.1 ± 6.0 s, the “Time spent … to vehicle %” value ([2]; 32 mg/Kg i.p.) was “+7%” and the “Time spent … (mean ± mean standard error)” value ([2]; 32 mg/Kg i.p.) was 78.9 ± 4.9 s.

With N#Cc1ccccc1N1CCN(CCn2cnc3ccccc3c2=O)CC1 [Compound (B), 3-(2-(4-(2-cyanophenyl)piperazin-1-yl)ethyl)quinazolin-4(3H)-one] the “Number … to vehicle control %” value [1, 4] was -42%, the “Number … (mean ± mean standard error)” value [1, 4] was 11.0 ± 3.3 and the “Number … to vehicle control %” value [1, 5] was -89%. For the same compound, the “Number … (mean ± mean standard error)” value [1, 5] was 2.1 ± 2.1, the “number of hidden spheres (result in words)” value ([1]; i.p.) was “significantly reduced the number of hidden spheres” and the “Time spent … to vehicle %” value ([2]; 4 mg/Kg i.p.) was “+37%”. The “Time spent … (mean ± mean standard error)” value ([2]; 4 mg/Kg i.p.) was 100.9 ± 15.2 s, the “Time spent … to vehicle %” value ([2]; 8 mg/Kg i.p.) was “+40%” and the “Time spent … (mean ± mean standard error)” value ([2]; 8 mg/Kg i.p.) was 103.0 ± 11.5 s. For the same compound, the “Time spent … to vehicle %” value ([2]; 16 mg/Kg i.p.) was “+103%”, the “Time spent … (mean ± mean standard error)” value ([2]; 16 mg/Kg i.p.) was 149.3 ± 11.0 s and the “permanence time in the clear compartment (result in words)” value [2] was “efficient in extending the permanence time in the clear compartment”.

COc1ccc2cccc(CCNC(C)=O)c2c1 [Agomelatine, agomelatine] was tested, and the “Time spent … to vehicle %” value ([2]; 25 mg/Kg i.p.) was -12%, the “Time spent … (mean ± mean standard error)” value ([2]; 25 mg/Kg i.p.) was 64.7 ± 4.9 s and the “Time spent … to vehicle %” value ([2]; 50 mg/Kg i.p.) was -4%. The “Time spent … (mean ± mean standard error)” value ([2]; 50 mg/Kg i.p.) was 70.6 ± 8.5 s, the “Time spent … to vehicle %” value ([2]; 75 mg/Kg i.p.) was -3% and the “Time spent … (mean ± mean standard error)” value ([2]; 75 mg/Kg i.p.) was 71.3 ± 7.3 s.
